Assay: Binding activity against 5-hydroxytryptamine 3 receptor from rat cortex homogenate using [3H]-Q-ICS 205-930 as radioligand; NA Not Available
`CN(C)CCc1c[nH]c2ccc(Cn3ccnn3)cc12` gave an IC50 of 50.1 nM.

Assay: Binding activity against 5-hydroxytryptamine 3 receptor from rat cortex homogenate using [3H]-Q-ICS 205-930 as radioligand.
With `CCn1nnnc1Cc1ccc2[nH]cc(CCN(C)C)c2c1` the IC50 was 25.1 nM. `CN(C)CCc1c[nH]c2ccc(Cc3nnn[nH]3)cc12` showed an IC50 of 3980 nM. `CN(C)CCc1c[nH]c2ccc(Cc3nnn(C)n3)cc12` gave an IC50 of 79.4 nM. Molecule `CCn1nnc(Cc2ccc3[nH]cc(CCN(C)C)c3c2)n1` has an IC50 of 126 nM. In the case of `Cc1nccn1Cc1ccc2[nH]cc(CCN(C)C)c2c1`, the IC50 is reported as 63.1 nM. In the case of `CN(C)CCc1c[nH]c2ccc(Cc3nnnn3C)cc12`, the IC50 is reported as 25.1 nM. Molecule `CN(C)CCc1c[nH]c2ccc(Cn3ncnn3)cc12` has an IC50 of 39.8 nM. `CN(C)CCc1c[nH]c2ccc(Cc3nncn3C)cc12` gave an IC50 of 25.1 nM. In the case of `Cc1nccn1-c1ccc2[nH]cc(CCN(C)C)c2c1`, the IC50 is reported as 7.94 nM. `CN(C)CCc1c[nH]c2ccc(Cn3cnnn3)cc12` gave an IC50 of 39.8 nM.

Assay: Binding activity against 5-hydroxytryptamine 2C receptor from pig cortex membrane using [3H]mesulergine as radioligand.
`CCn1nnnc1Cc1ccc2[nH]cc(CCN(C)C)c2c1` showed an IC50 of over 10000 nM. For `CN(C)CCc1c[nH]c2ccc(Cc3nnn[nH]3)cc12`, the IC50 was over 10000 nM. `Cc1nccn1Cc1ccc2[nH]cc(CCN(C)C)c2c1` gave an IC50 of 3160 nM. Molecule `CN(C)CCc1c[nH]c2ccc(Cn3ccnc3)cc12` has an IC50 of 3980 nM. For `CN(C)CCc1c[nH]c2ccc(Cn3ncnn3)cc12`, the IC50 was 1000 nM. Molecule `CN(C)CCc1c[nH]c2ccc(Cc3ncnn3C)cc12` has an IC50 of over 10000 nM. Molecule `CN(C)CCc1c[nH]c2ccc(Cn3cnnn3)cc12` has an IC50 of 2000 nM.

Assay: Binding activity against 5-hydroxytryptamine 3 receptor from rat cortex homogenate using [3H]-Q-ICS 205-930 as radioligand.
Remark: another data set of the same source
`CN(C)CCc1c[nH]c2ccc(Cn3ccnc3)cc12` showed an IC50 of 31.6 nM. For `CN(C)CCc1c[nH]c2ccc(Cc3ncnn3C)cc12`, the IC50 was 100 nM.

— BindingDB's records for doi:10.1021/jm00010a025 (Merck Sharp & Dohme Research Laboratories, 1995)
